Literature values in patent publication US20250345315A1, “Dispenseable formulation for active pharmaceutical ingredients” (CurifyLabs Oy, priority 2024, published 2025).
Structures can show the parent of a compound that is named as a salt.

Settings: permeability/solubility class per ICH M9 guideline

| Structure (SMILES) | Class |
| --- | --- |
| CC(=O)Nc1ccc(O)cc1 [Paracetamol] | I |
| C[C@]12C=CC(=O)C=C1CC[C@@H]1[C@@H]2[C@@H](O)C[C@@]2(C)[C@H]1CC[C@]2(O)C(=O)CO [Prednisolone] | I |

Continued, values first:

| Class | Structure (SMILES) |
| --- | --- |
| I | CC(=O)Oc1ccccc1C(=O)O [Acetylsalicylic acid] |
| I | CC(C)NCC(O)COc1ccc(COCCOC(C)C)cc1 (centres unmarked) [Bisoprolol fumarate] |
| I | CC(C)NCC(O)COc1cccc2ccccc12 (centres unmarked) [Propranolol HCl] |
